Assay [1] deals with sham-operated rats and septic rats. Briefly: Catecholamine responsiveness study (dobutamine / noradrenaline challenge) in rat faecal peritonitis model. The conditions noted are these: 10 minutes after commencement of infusion. The format is in vivo. As for the experimental part:
II. Sepsis was induced in awake, instrumented male Wistar rats (316±23.5 g) as described above but using 7 microL of faecal slurry/g body weight. Rats were allocated into sham-operated (control), sepsis and sepsis+cholesterol groups.
At 6 h post-induction of sepsis, the sepsis+cholesterol group received an i.v. infusion of a cholesterol-loaded formulation, either liposomal- or bovine HDL (10 mg cholesterol/300 g bw), which was continued over 15 hours.
At 21 h, catecholamine responsiveness was tested by consecutively administering, under isoflurane anaesthesia, the beta-adrenergic agonist, dobutamine (10 μg/kg/min for 10 min) and then the predominant alpha-adrenergic agonist, norepinephrine (0.5 μg/kg/min for 10 min) with a 30 min washout period in between.
Blood pressure (measured continuously from an indwelling carotid line), heart rate and stroke volume (measured by echocardiography) were measured before and at 10 minutes after each drug was infused.

A further assay relates to H9C2 cell line. The assay is described as follows: Western blot of ERK2 phosphorylation after adrenaline treatment (adrenergic signalling). It is filed as cell-based, rat. The conditions noted are these: for ERK2 phosphorylation after adrenaline treatment: H9C2 depleted with MßCD, then incubated with sterol. As to the method:
(§1) Cells were incubated in 5 mM solution MßCD in DMEM for 30 minutes. Before treatment cells were washed twice with prewarmed PBS to remove remaining FBS and prevent contamination of exogenous cholesterol.
After MßCD treatment cells were washed twice with prewarmed PBS to remove remaining MßCD solution and then incubated for 4 hours with either (i) complex Cholesterol—MßCD or (ii) Sitosterol—MßCD. These were prepared according to the protocol reported by Klein et al. (Biochemistry 1995; 34:13784). Sterol complexes were diluted ×100 in DMEM to produce final concentrations of 68 microM cholesterol, 68 microM sitosterol and 700 microM MßCD.
Control, MßCD or MßCD/sterol-treated cells were incubated for 10 minutes with adrenaline or noradrenaline solution in DMEM (final concentration 10^−7M).
Cells were washed and lysed on plates with RIPA buffer supplemented by protease and phosphatase inhibitors on ice for 30 minutes. Lysates were treated as described above for sterol determination. Protein concentration was determined by BCA assay. Western blot samples were prepared by mixing the lysates with 5× loading buffer (Tris HCl pH 6.8 312.5 mM, SDS 10%, bME 12.5%, glycerol 47.5%, bromophenol blue 0.01%). 2 mcg of protein/sample was separated by electrophoresis on 10% SDS-PAGE and transferred to a PVDF membrane. Membrane was blocked with 5% BSA in TBST for 1 hour at room temperature with gentle agitation and incubated with primary anti-pERK or anti-PFK antibodies overnight at 4° C. Both primary antibodies were diluted 2000 times in 5% BSA in TBST. […]
Chemiluminescent detection was performed using the Clarity TM Western ECL Substrate (Bio-Rad). Band intensity was analysed by Image Studio Lite ver5.2. Results are calculated as a ratio of intensities of pERK2 band to PFK band for each sample and normalized as a percentage from the average of samples treated with adrenaline only.

Another assay deals with H9C2 cardiomyocytes. Briefly: ERK1 and ERK2 phosphorylation after dobutamine treatment (adrenergic signalling). The format is cell-based, rat. The conditions noted are these: H9C2 treated with MßCD alone. As to the method:
Adrenergic signalling was evaluated in the H9C2 cardiomyocytes by the increase of ERK1 and ERK2 phosphorylation after dobutamine treatment.

The test system of a further assay is H9C2 cardiomyocyte cells. Briefly: Sterol concentration in H9C2 cells after MßCD depletion (Amplex Red / BCA). The format is cell-based, rat. As to conditions: sterol-MßCD complex, 68 microM sterol, 4 hours. As to the method:
Rat embryonic cardiomyocyte H9C2 cells were cultured in high-glucose DMEM (Gibco 41965-039) supplemented with 10% fetal bovine serum (FBS, Gibco 10270-106) and 100 U/ml of penicillin/streptomycin at 37° C. in a humidified atmosphere of 5% CO2. Cells were split every 2-3 days.
Two days prior to experimentation, cells were seeded in 6 well plates (Corning N-3516) 3×10^5 cells/well. Before any treatment. cells were washed twice with prewarmed PBS.
as §1
After MßCD treatment cells were washed twice with prewarmed PBS to remove remaining MßCD solution and then incubated for 4 hours with either (i) complex Cholesterol—MßCD or (ii) Sitosterol—MßCD. These were prepared according to the protocol reported by Klein et al. (Biochemistry 1995; 34:13784). […]
After incubation MßCD-treated, MßCD/Sterol treated, and untreated (control) cells were washed twice with ice-cold PBS and lysed with phosphate buffer (0.1 M potassium phosphate pH 7.4, 50 mM NaCl, 5 mM cholic acid, 0.1% Triton X-100, protease inhibitors) on ice. […] Protein and sterol concentrations were measured by BCA and Cholesterol Amplex Red assays, respectively. […]

Where [2] appears, read: septic rats, 21 h post-faecal peritonitis.

With `NC[C@H](O)c1ccc(O)c(O)c1` [noradrenaline], the “blood pressure response to the agonist” value in assay [1] (setting [2]) was “non-responsive”; in assay [1] (sham animals), “significant rises”.

With `CC(CCc1ccc(O)cc1)NCCc1ccc(O)c(O)c1` (stereo not shown) [dobutamine], the “stroke volume response to the agonist” value is given as “non-responsive” in assay [1] (setting [2]) and “significant rises” in assay [1] (sham animals).

Take Methyl-β-cyclodextrin [MßCD]: in the assay on H9C2 cell line (H9C2, 5 mM MßCD for 30 minutes), the “ERK2 phosphorylation after adrenaline treatment (in words)” value was “decreased ERK2 phosphorylation”. For the same molecule, in the assay on H9C2 cardiomyocytes, the “phosphorylation of ERK1 and ERK2 after dobutamine treatment” value is “decreased phosphorylation of both ERK1 and ERK2”.

As to `CC[C@H](CC[C@@H](C)[C@H]1CC[C@H]2[C@@H]3CC=C4C[C@@H](O)CC[C@]4(C)[C@H]3CC[C@]12C)C(C)C` [sitosterol, Sitosterol], the “ERK2 phosphorylation after adrenaline treatment” value in the assay with H9C2 cell line worked out at 2 × normal. Also, the “cellular sterol content after MßCD depletion” value in the assay on H9C2 cardiomyocyte cells was “Sterol content was restored”.

With `CC(C)CCC[C@@H](C)[C@H]1CC[C@H]2[C@@H]3CC=C4C[C@@H](O)CC[C@]4(C)[C@H]3CC[C@]12C` [cholesterol, Cholesterol], the “ERK2 phosphorylation after adrenaline treatment” value in the assay with H9C2 cell line came to 2 × normal. Moreover, the “cellular sterol content after MßCD depletion” value in the assay on H9C2 cardiomyocyte cells is “Sterol content was restored”.
